Reference: US12685728B2, “Anti-vertigo compound and pharmaceutical compositions thereof” (Amneal Pharmaceuticals LLC, priority 2020, dated 2026)

What was measured:
[1] = doses up to 450-fold higher than the therapeutic doses; cited from earlier work
[2] = system: patients with Peripheral vertigo; test: Open label, active comparator controlled clinical trial: MVS score (severity of vertigo symptoms); type: in vivo, human
From the text: The MVS score, a 12-item composite score to measure the severity of vertigo symptoms, is defined as the mean intensity of 6 (unprovoked) vertigo symptoms (dysstasia and walking unsteadiness, staggering, rotary sensation, tendency to fall, lift sensation, blackout) and vertigo in consequence of 6 triggering factors [change of position (lying), bowing, getting up, driving by car/train, head movements (inclination, twist), eye movement]. The intensity of each of the 12 single symptoms is rated by the patients by means of a 5-point VAS (0=not present, 1=moderate, 2=medium, 3=strong, 4=very strong). A mean MVS serving as a measure of vertigo intensity, will be calculated by adding the scores on all 12 vertigo symptoms and dividing by 12. The scale is rated by patients directly.
(§1) The current study was designed as an open label, two-treatment arm, active comparator controlled, Clinical trial in patients with Peripheral vertigo. This study involved a screening phase, randomization and treatment phase as mentioned below: • Screening phase (Visit 1): −14 to −1 day • Baseline visit and day of randomization (Visit 2): Day 0/1 • Treatment phase: Day 1 to Day 28 • End of treatment (Visit 4): Day 29±2 days
(§2) Patients with Peripheral vertigo, meeting the mentioned eligibility criteria were identified and shortlisted patients underwent screening within 14 days prior to randomization. A total of 16 patients were randomized in the ratio of 3:1 to receive the test and active comparator products (12 patients received test product and 4 patients received active comparator product). Test product was consumed as 20 mg Levocloperastine orally three times a day for 28 days. Active comparator (standard of care) was consumed by the patients as per the investigator's sole discretion and medical judgement. The standard of care treatment included Betahistine 16 mg tablets three times daily OR Betahistine 16 mg tablets three times daily plus Acetazolamide 125 mg tablets two time daily OR Cinnarizine 25 mg tablets three times daily which was given to patient.
MVS Score: Mean change in MVS score from baseline score was compared between two treatment arms.

[3] = system: patients with Peripheral vertigo; test: Same clinical trial: composite score of vegetative concomitant symptoms (nausea, vomiting, sweating, tachycardia), 5-point VAS; type: in vivo, human
From the text: as §1, §2
Additionally, mean change in composite score of vegetative concomitant symptoms from baseline score was compared between two treatment arms. The absolute data and mean changes from baseline data are presented below in Table 2.

[4] = system: patients with Peripheral vertigo; test: Same clinical trial: tolerability; type: in vivo, human; conditions: 20 mg orally three times a day for 28 days
From the text: as §1, §2

[5] = 20 mg orally three times a day for 28 days
[6] = 7 days after treatment onset [Interim visit: Day 7 + 3]
[7] = 28 days after treatment onset [end of treatment: Day 29 ± 2]

In the case of `Clc1ccc([C@@H](OCCN2CCCCC2)c2ccccc2)cc1` (racemic) [Levocloperastine], the Sedation [1] is listed as “did not induce any clinically relevant sedation”, the “Efficacy on primary efficacy endpoint MVS score versus standard of care” value [2, 5] is listed as “equally efficacious in comparison to standard of care treatment” and the “MVS Score, Change from baseline, Mean ± SD” value ([2]; A/28 Days [Day 29 ± 2]) is listed as −1.1 ± 0.45. For the same molecule, the “MVS Score, Mean ± SD” value ([2]; A/28 Days [Day 29 ± 2]) was 1.1 ± 0.58, the “MVS Score, Change as %” value ([2]; A/28 Days [Day 29 ± 2] vs baseline) was −50.00% and the “MVS Score, Mean ± SD” value ([2]; Baseline (Day 0/1)) was 2.2 ± 0.29. The “MVS Score, Change from baseline, Mean ± SD” value ([2]; Interim visit [Day 7 + 3]) was −0.7 ± 0.33, the “MVS Score, Mean ± SD” value ([2]; Interim visit [Day 7 + 3]) was 1.5 ± 0.49 and the MVS Score, Change as % ([2]; Interim visit [Day 7 + 3] vs baseline) was -31.8%. The “Alleviation of vegetative concomitant symptoms versus standard of care” value [3, 5] was “statistically better in alleviating the vegetative concomitant symptoms than the standard of care treatment”, the “Score of vegetative concomitant symptoms, Absolute data, Mean ± SD” value (from here on “Score … Absolute data, Mean ± SD”) [3, 6] was 0.6 ± 0.73 and the “Score of vegetative concomitant symptoms, Change as %” value [3, 6] was −46.15%. The “Score of vegetative concomitant symptoms, Change from baseline, Mean ± SD” value [3, 6] was −0.6 ± 0.81, the “Score … Absolute data, Mean ± SD” value [3, 7] was 0.2 ± 0.47 and the “Score of vegetative concomitant symptoms, Change as %” value [3, 7] was −84.62%. The “Score of vegetative concomitant symptoms, Change from baseline, Mean ± SD” value [3, 7] was −1.1 ± 0.98, the “Score … Absolute data, Mean ± SD” value ([3]; Baseline) was 1.3 ± 1.05 and the “Duration of treatment for comparable improvement in vegetative concomitant symptoms severity” value ([3]; human, in vivo) was “about 7 days”. For the same molecule, the Tolerability [4] was “well tolerability in all patients”.
